For 2 compounds, ED50 and bioavailability results are on record in ChEMBL document CHEMBL1133560, “Design and synthesis of new orally active nonpeptidic inhibitors of human neutrophil elastase” (J Med Chem, 2000).

A short description of data set [1]: (§1) Effective dose determined in an animal model which lasted for more than 8 h. Type of data set: ADME.
Data set [2] in a line: as §1. Type of data set: functional.
A short description of data set [3]: Percent oral bioavailability evaluated in dog. Type of data set: ADME, organism-based, Canis lupus familiaris. The conditions noted are these: in vivo.
A short description of data set [4]: Percent oral bioavailability evaluated in rat. The conditions noted are these: in vivo. Type of data set: ADME, organism-based.
The nature of data set [5]: Percent oral bioavailability evaluated in monkey. Type of data set: ADME, organism-based. The conditions noted are these: cercopithecidae, in vivo.

In general, ED50 refers to the dose at which the effect has come halfway, by size or by number of responders. For orientation: bioavailability means the share of a dose that reaches the circulation, judged against a reference dose that is usually intravenous.

Compound `CC(C)C(NC(=O)Cn1c(-c2ccc(F)cc2)ncc(N)c1=O)C(=O)C(F)(F)F` (stereo not given) showed a median effective dose (ED50) in data set [1] of 7.5 mg/kg.
Take `CC(C)C(NC(=O)Cn1c(-c2ccccc2)ncc(N)c1=O)C(=O)c1nnc(C(C)(C)C)o1` (stereo not given): the ED50 in data set [2] stood at 1.4 mg/kg. For the same compound, the results for the bioavailability in data set [3], in data set [4] and in data set [5] were 31%, 51% and 18%, respectively.
